Results published in PubChem BioAssay (NCI).
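Method: 48-hour compound exposure of cells in 96-well plates, five concentrations, linear interpolation of endpoints. Abbreviation: GI50, concentration required for 50% inhibition of growth. TGI: concentration producing complete growth inhibition.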

What was measured:
Test in all cases: DTP human tumour cell line panel, 48 h
NCI-H23 lung = system: NCI-H23 lung
NCI-H460 lung = system: NCI-H460 lung
NCI-H522 lung = system: NCI-H522 lung
NCI/ADR-RES ovarian = system: NCI/ADR-RES ovarian
OVCAR-3 ovarian = system: OVCAR-3 ovarian
OVCAR-4 ovarian = system: OVCAR-4 ovarian
OVCAR-5 ovarian = system: OVCAR-5 ovarian
OVCAR-8 ovarian = system: OVCAR-8 ovarian
PC-3 prostate = system: PC-3 prostate
RPMI-8226 leukemia = system: RPMI-8226 leukemia
RXF 393 renal = system: RXF 393 renal
SF-268 CNS = system: SF-268 CNS
SF-295 CNS = system: SF-295 CNS
SF-539 CNS = system: SF-539 CNS
SK-MEL-2 melanoma = system: SK-MEL-2 melanoma
SK-MEL-28 melanoma = system: SK-MEL-28 melanoma
SK-MEL-5 melanoma = system: SK-MEL-5 melanoma
SK-OV-3 ovarian = system: SK-OV-3 ovarian
SN12C renal = system: SN12C renal
SNB-19 CNS = system: SNB-19 CNS
SNB-75 CNS = system: SNB-75 CNS
SR leukemia = system: SR leukemia
SW-620 colon = system: SW-620 colon
T-47D breast = system: T-47D breast
TK-10 renal = system: TK-10 renal
U251 CNS = system: U251 CNS
UACC-257 melanoma = system: UACC-257 melanoma
UACC-62 melanoma = system: UACC-62 melanoma
UO-31 renal = system: UO-31 renal

`CCN(CC)CC(O)CNc1c2ccc(Cl)cc2nc2ccc(OC)cc12` (stereo not drawn) gave a GI50 (NCI-H23 lung) of 852 nM, a TGI (NCI-H23 lung) of 2530 nM and a GI50 (NCI-H460 lung) of 327 nM. The TGI (NCI-H460 lung) was 975 nM, the GI50 (NCI-H522 lung) was 518 nM and the TGI (NCI-H522 lung) was 1840 nM. For the same molecule, the GI50 (NCI/ADR-RES ovarian) was 933 nM, the TGI (NCI/ADR-RES ovarian) was 3.31 µM and the GI50 (OVCAR-3 ovarian) was 1710 nM. The TGI (OVCAR-3 ovarian) was 4.26 µM, the GI50 (OVCAR-4 ovarian) was 704 nM and the TGI (OVCAR-4 ovarian) was 2250 nM. It also gave a GI50 (OVCAR-5 ovarian) of 1660 nM, a TGI (OVCAR-5 ovarian) of 5.18 µM and a GI50 (OVCAR-8 ovarian) of 521 nM. The TGI (OVCAR-8 ovarian) was 2250 nM, the GI50 (PC-3 prostate) was 355 nM and the TGI (PC-3 prostate) was 1620 nM. It also gave a GI50 (RPMI-8226 leukemia) of 510 nM, a TGI (RPMI-8226 leukemia) of 1870 nM and a GI50 (RXF 393 renal) of 657 nM. The TGI (RXF 393 renal) was 1840 nM, the GI50 (SF-268 CNS) was 890 nM and the TGI (SF-268 CNS) was 2970 nM. It also gave a GI50 (SF-295 CNS) of 649 nM, a TGI (SF-295 CNS) of 2110 nM and a GI50 (SF-539 CNS) of 1430 nM. For the same molecule, the TGI (SF-539 CNS) was 3.05 µM, the GI50 (SK-MEL-2 melanoma) was 1270 nM and the TGI (SK-MEL-2 melanoma) was 2850 nM. It also gave a GI50 (SK-MEL-28 melanoma) of 1720 nM, a TGI (SK-MEL-28 melanoma) of 3.1 µM and a GI50 (SK-MEL-5 melanoma) of 1580 nM. It also gave a TGI (SK-MEL-5 melanoma) of 2920 nM, a GI50 (SK-OV-3 ovarian) of 1020 nM and a TGI (SK-OV-3 ovarian) of 3.64 µM. It also gave a GI50 (SN12C renal) of 540 nM, a TGI (SN12C renal) of 2680 nM and a GI50 (SNB-19 CNS) of 632 nM. The TGI (SNB-19 CNS) was 2700 nM, the GI50 (SNB-75 CNS) was 970 nM and the TGI (SNB-75 CNS) was 2380 nM. It also gave a GI50 (SR leukemia) of 338 nM, a TGI (SR leukemia) of 1070 nM and a GI50 (SW-620 colon) of 393 nM. It also gave a TGI (SW-620 colon) of 1650 nM, a GI50 (T-47D breast) of 1180 nM and a TGI (T-47D breast) of 2930 nM. For the same molecule, the GI50 (TK-10 renal) was 837 nM, the TGI (TK-10 renal) was 3.18 µM and the GI50 (U251 CNS) was 574 nM. The TGI (U251 CNS) was 2320 nM, the GI50 (UACC-257 melanoma) was 1750 nM and the TGI (UACC-257 melanoma) was 3.27 µM. For the same molecule, the GI50 (UACC-62 melanoma) was 1780 nM, the TGI (UACC-62 melanoma) was 3.31 µM and the GI50 (UO-31 renal) was 929 nM. The TGI (UO-31 renal) was 3.41 µM.
